This series deals with dogs with induced myocardial infarction. Put plainly: Inotropic potency on intravenous administration to dogs with induced myocardial infarction. As to conditions: for ED50: Canis lupus familiaris, dose required to effect a fifty percent increase in contractility, four dogs with induced myocardial infarction, read-out: Contractile potency (mcg./kg.)ED50; for Blood pressure change (mm/Hg)ED50: change in blood pressure attributable to the drug at the ED50 dose; for Blood pressure change (mm/Hg)ED50 / Heart rate increase (beats/min.)ED50: dogs with induced myocardial infarction; for Heart rate increase (beats/min.)ED50: increase in heart rate observed at the ED50 dose. It counts as in vivo. The protocol:
The compounds provided by this invention have been evaluated for their inotropic potency in anesthetized dogs and in conscious dogs with implanted cardiovascular transducers. The heart rate, cardiac output, systolic pressure and the derivative of the left ventricular pressure, which is the index of cardiac contractility, were measured.
Column 1 lists the compounds evaluated according to the test. Each of the compounds evaluated was administered intravenously to four dogs with induced myocardial infarction. Column 2 records the contractile potency of each compound as the dose in mcg./kg. of body weight required to effect a fifty percent increase in contractility (ED50). Column 3 presents the increase in heart rate observed at the EDSO dose. Column 4 records the change in blood pressure attributable to the administered drug.

On to `Oc1ccc(CCCNC[C@H](O)c2cccc(O)c2)cc1` [R-N-[2-(3-hydroxyphenyl)-2-hydroxyethyl]-3-(4-hydroxyphenyl)propylamine], for which the ED50 was determined as 5 µg/kg, the “Blood pressure change (mm/Hg)ED50” value was “+1 mm/Hg” and the “Heart rate increase (beats/min.)ED50” value came to 12 beats/min.
Take `Oc1ccc([C@@H](O)CNCCCc2cccc(O)c2)cc1` [R-N-[2-(4-hydroxyphenyl)-2-hydroxyethyl]-3-(3-hydroxyphenyl)propylamine]: the ED50 stood at 1 µg/kg, the “Blood pressure change (mm/Hg)ED50” value was -4 mm/Hg and the “Heart rate increase (beats/min.)ED50” value stood at 16 beats/min.
In the case of `Oc1ccc(CCCNC[C@H](O)c2ccc(O)cc2)cc1` [R-N-[2-(4-hydroxyphenyl)-2-hydroxyethyl]-3-(4-hydroxy-phenyl)propylamine], the ED50 came out at 4 µg/kg, the “Blood pressure change (mm/Hg)ED50” value is recorded as “+4 mm/Hg” and the “Heart rate increase (beats/min.)ED50” value is given as 10 beats/min.
Consider `Oc1cccc(CCCNC[C@H](O)c2cccc(O)c2)c1` [R-N-[2-(3-Hydroxyphenyl)-2-hydroxyethyl]-3-(3-hydroxyphenyl)propylamine], for which the ED50 is 1 µg/kg, the “Blood pressure change (mm/Hg)ED50” value is listed as “+7 mm/Hg” and the “Heart rate increase (beats/min.)ED50” value is given as 14 beats/min.

Values taken from patent EP0007716A1, “R-N-(2-phenyl-2-hydroxyethyl)-3-phenylpropyl amines, their formulations, use and preparation” (ELI LILLY AND COMPANY, priority 1978, dated 1980).
